Laboratory results reported in patent EP0099121A2, “Pharmaceutical compositions” (Bristol-Myers Company, priority 1982, dated 1984).

System: Gastric Acid Output
Assay: Gastric antisecretory activity in the Gastric Fistula Rat (Table 2 title: Two-Hour Pylorus Ligated Rat)
Assay type: in vivo, Long Evans rats
Details: Rattus norvegicus, ip; Route of Administration i.p.; numbers in parentheses are the 95% confidence limits; read-out: ED50
Description: Male Long Evans rats weighing about 240-260 grams at the time of cannula implantation are used. The design and implantation of the stainless steel cannula into the anterior wall of the fore-stomach are carried out essentially as described by Pare et al. [Laboratory Animal Science, 27, 244 (1977)]. The fistula components are designed and the operative procedure is carried out exactly as described in the above reference. Post operatively the animals are individually housed in solid bottom cages with sawdust and are allowed food and water ad libitum throughout the entire recovery period. Animals are not used for test purposes for at least 15 days after the operative procedure.
The animals are fasted but allowed water ad libitum for 20 hours before the testing procedure is to begin. Immediately prior to collection, the cannula is opened and the stomach washed gently with 30-40 mL of warm saline or distilled water to remove any residual contents. The catheter is then screwed into the cannula in place of the plugging screw and the rat is placed in a clear plastic rectangular cage measuring 40 cm long, 15 cm wide and 13 cm high. The bottom of the cage has a slit approximately 1.5 cm wide and 25 cm long running down the center to accommodate the catheter which hangs through it. In this way the rat is not restricted and can move freely about the cage during collection periods. The remainder of the assay is carried out as described by Ridley et al. [Research Comm. Chem. Path. Pharm., 17, 365 (1977)].
Gastric secretions collected during the first hour after washing the stomach are discarded as they may be contaminated. For oral evaluation, the catheter is then removed from the cannula and replaced with the plugging screw. Water (2 mL/kg) is administered orally via gastric intubation and the animal is returned to the cage for 45 minutes. After this time the plugging screw is removed and replaced with a catheter to which a small plastic vial has been attached to collect the gastric secretions. A two hour sample is collected (this represents the control secretion), the catheter removed and replaced with the plugging screw. The test drug is now administered orally in a volume of 2 mL/kg via gastric intubation. Forty-five minutes later the plugging screw is again removed, replaced with the catheter attached to a small plastic vial and another 2 hour sample is collected. The secretions in the second sample are compared to those of the control sample in order to determine the effects of the test drug.
When test compounds are to be evaluated parenterally, the animal is injected ip or sc with the test compound vehicle in a volume of 2 mL/kg immediately after discarding the initial 60 minute collection. A two hour sample is collected (control secretion) and the animals are injected either ip or sc with the test compound in a volume of 2 mL/kg. An additional two hour sample is collected and its secretions are compared to those of the control period to determing drug effects.
The samples are centrifuged in a graduated tube for volume determination. Titratable acidity is measured by titrating a one mL sample to pH 7.0 with 0.02N NaOH, using an Autoburet and an electrometric pH meter (Radiometer). Titratable acid output is calculated in microequivalents by multiplying the volume in milliliters by the acid concentration in milliequivalents per liter.
Results are expressed as percent inhibition relative to control readings. Dose response curves are constructed and ED values are calculated by regression analyses. At least three rats are used at each dosage level and a minimum of three dosage levels are utilized for determination of a dose response curve.

Compound | ED50 [µmol/kg]
C#CCNC1=NS(=O)(=O)N=C1NCCSCc1csc(N=C(N)N)n1 [Example 32, 3-{2-[(2-Guanidinothiazol-4-yl)methyithio]ethylamino}-4-(2-propynyl)amino-1,2,5-thiadiazole 1,1-dioxide] | 0.08
Cc1[nH]cnc1CSCCNC1=NS(=O)(=O)N=C1NCCSCc1csc(N=C(N)N)n1 [Example 3, 3-{2-[(2-Guanidinothiazol-4-yl)methylthio]ethylanino}-4-{2-[(5-methyl-1H-imidazol-4-yl)methylthio]ethylamino}-1,2,5-thiadiazole 1,1-dioxide] | 0.46

Same assay, conditions: Rattus norvegicus, sc; Route of Administration s.c.; numbers in parentheses are the 95% confidence limits; read-out: ED50

Compound | ED50 [µmol/kg]
CCNC1=NS(=O)(=O)N=C1NCCSCc1ccc(CN(C)C)s1 [Example 131, 3-{2-[(5-Dimethylaminomethyl-2-thienyl)methylthio]ethylamino}-4-ethylamino-1,2,5-thiadiazole 1,1-dioxide] | ~0.5
CNC1=NS(=O)(=O)N=C1NCCSCc1csc(N(C)C)n1 [Example 127, 3-{2-[(2-Dimethylaminothiazol-4-yl)methylthio]ethylamino}-4-methylamino-1,2,5-thiadiazole 1,1-dioxide] | > 10
CN=C(NC)Nc1nc(CSCCNC2=NS(=O)(=O)N=C2NC)cs1 [Example 125, 3-Methylamino-4-{2-[(2-{2,3-dimethylguanidino)thiazol-4-yl)-methylthio]ethylamino}-1,2,5-thiadiazole 1,1-dioxide] | ~10
N=C(N)Nc1nc(CSCCNC2=NS(=O)(=O)N=C2NCCO)cs1 [Example 36, 3-{2-[(2-Guanidinothiazol-4-yl)methylthio]ethylamino}-4-(2-hydroxyethylamino)-1,2,5-thiadiazole 1,1-dioxide] | 1.59
CCCNC1=NS(=O)(=O)N=C1NCCSCc1ccc(CN(C)C)s1 [Example 108, 3-{2-[(5-Dimethylaminomethyl-2-thienyl)methylthio]ethylamino}-4-propylamino-1,2,5-thiadiazole 1,1-dioxide] | 2.2
CN(C)Cc1ccc(CSCCNC2=NS(=O)(=O)N=C2NCC2CC2)o1 [Example 98, 3-Cyclopropylmethylamino-4-{2-[ (5-dimethylaminomethyl-2-furyl)methylthio]ethylamino}-1,2,5-thiadiazole 1,1-dioxide] | 0.52
N=C(N)Nc1nc(CSCCNc2n[s+]([O-])nc2NCCSCc2csc(NC(=N)N)n2)cs1 (stereo not drawn) [Example 121, 3,4-Bis-{2-[(2-guanidinothiazol-4-yl)methylthio]ethylamino}-1,2,5-thiadiazole 1-oxide] | 0.19
CN(C)Cc1ccc(CSCCNC2=NS(=O)(=O)N=C2NC2CC2)o1 [Example 97, 3-Cyclopropylamino-4-{2-[(5-dimethylaminomethyl-2-furyl)-methylthio]ethylamino}-1,2,5-thiadiazole 1,1-dioxide] | ~3
CN(C)Cc1cccc(CSCCNc2n[s+]([O-])nc2N)c1 (stereo not drawn) [Example 91, 3-Arnino-4-{2-[(3-{dinethylaninomethyl}henyl)methvlthio}-ethvlamino}-1,2,5-thiadiazole 1-oxide] | 1.3
CN(C)Cc1ccc(CSCCNC2=NS(=O)(=O)N=C2NCc2cccnc2)s1 [Example 110, 3-{2-[(5-Dimethylaminomethyl-2-thienyl)methylthio]ethylamino}-4-[(3-pyridyl)methylamino]-1,2,5-thiadiazole 1,1-dioxide] | 0.05
CN(C)Cc1ccc(CSCCNc2n[s+]([O-])nc2N)s1 (stereo not drawn) [Example 109, 3-Amino-4-{2-[(5-dimethylaminomethyl-2-thienyl)methylthio]-ethylamino}-1,2,5-thiadiazole 1-oxide] | 1.4
CCNc1n[s+]([O-])nc1NCCSCc1ccc(CN(C)C)o1 (stereo not drawn) [Example 84, 3-{2-[(5-Dimethylaminomethyl-2-furyl)methylthio]ethylartino}-4-ethylamino-1,2,5-thiadiazole 1-oxide] | 0.15
CN(C)Cc1ccc(CSCCNC2=NS(=O)(=O)N=C2NN)o1 [Example 51] | 55
CN(C)Cc1ccc(CSCCNC2=NS(=O)(=O)N=C2NCc2ccncc2)s1 [Example 130, 3-{2-[(5-Dimethylaminomethyl-2-thienyl)methylthio]ethylamino}-4-[(4-pyridyl)methylamino]-1,2,5-thiadiazole 1,1-dioxide] | 2.3
CNC1=NS(=O)(=O)N=C1NCCSCc1csc(CN(C)C)n1 [Example 33, 3-{2-[(2-Dimethylaminomethyl-4-thiazolyl)methylthio]ethyl-amino}-4-methylamino-1,2,5-thiadiazole 1,1-dioxide] | 0.57
CNC1=NS(=O)(=O)N=C1NCCSCc1ccccn1 [Example 52, 3-Methylamino-4-{2-[(2-pyridyl)methylthio]ethylamino}-1,2,5-thiadiazole 1,1-dioxide] | ~350
CNC1=NS(=O)(=O)N=C1NCCCOc1cccc(CN2CCCCC2)c1 [Example 132, 3-Methylamino-4-{3-(3-piperidinomethylphenoxy)propylamino] - 1,2,5-thiadiazole 1,1-dioxide] | 0.025
NC1=NS(=O)(=O)N=C1NCCCOc1cccc(CN2CCCCC2)c1 [Example 134, 3-Amino-4-[3-(3-piperidinomethylphenoxy)propyiamino]-1,2,5-thiadiazole 1,1-dioxide] | 0.024
CN=C(N)Nc1nc(CSCCNc2n[s+]([O-])nc2N)cs1 (stereo not drawn) [Example 117, 3-Amino-4-{2-[(2-{2-methylguanidino}thiazol-4-yl)methylthio]-ethylamino}-1,2,5-thiadiazole 1-oxide] | ~0.5
CN(C)Cc1ncc(CSCCNc2n[s+]([O-])nc2N)s1 (stereo not drawn) [Example 123, 3-Amino-4-{2-[(2-dimethylaminomethylthiazol-5-yl)methylthio]-ethylamino}-1,2,5-thiadiazole 1-oxide] | > 10
CN(C)Cc1ccc(CSCCNC2=NS(=O)(=O)N=C2NCc2ccc3c(c2)OCO3)s1 [Example 135, 3-{2-[(5-Dimethylaminomethyl-2-thienyl)methylthio]ethylamino}-4-(3,4-methylenedioxybenzylamino)-1,2,5-thiadiazole 1,1-dioxide] | 0.57
Nc1nc(CSCCNc2n[s+]([O-])nc2N)cs1 (stereo not drawn) [Example 124, 3-Amino-4-{2-[(2-aminothiazol-4-yl)methylthio]ethylamino}-1,2,5-thiadiazole 1-oxide] | > 10
CONC1=NS(=O)(=O)N=C1NCCSCc1ccc(CN(C)C)o1 [Example 107, 3-{2-[(5-Dimethylaminomethyl-2-furyl)methylthio]ethylamino}-4-methoxyamino-1,2,5-thiadiazole 1,1-dioxide] | 23
CN(C)Cc1ccc(CSCCNC2=NS(=O)(=O)N=C2N2CCOCC2)o1 [Example 99, 3-{2-[(5-Dimethylaminomethyl-2-furyl)methylthio]ethylamino}-4-morpholino-1,2,5-thiadiazole 1,1-dioxide] | 32

Same assay, conditions: Route of Administration s.c.; numbers in parentheses are the 95% confidence limits

Compound | ED50
CNCc1ccc(CSCCNC2=NS(=O)(=O)N=C2NC)o1 [20 A] | 1.15 (0.32-3.7) μmoles/kg
3-{2-[(5-Dimethylaminomethyl-2-furyl)methylthio]-ethylamino}-4-pieridino-1,2,5-thiadiazole 1,1-dioxide [Example 102] | ~15 µmol/kg
3-{2-[(5-Dimethylaminomethyl-2-furyl)methylthio]ethyl- amino}-4-dinethylamino-1,2,5-thiadiazole 1,1-dioxide [Example 28] | 1.39 (0.39-4.91) μmoles/kg
CNC1=NS(=O)(=O)N=C1NCCCOc1cccc(CN2CCCC2)c1 [144 a] | 0.095 (0.033-0.30) μmoles/kg
CNC1=NS(=O)(=O)N=C1NCCCOc1cccc(CN2CCOCC2)c1 [144 d] | 0.91 (0.36-3.2) μmoles/kg
Nc1n[s+]([O-])nc1NCCCOc1cccc(CN2CCCC2)c1 (stereo not drawn) [145 a] | 0.056 (0.021-0.18) μmoles/kg
3-{2-[(5-Dimethylaminomethyl-2-furyl)methy1thio]ethylamino}-4-dodecylamino-1,2,5-thiadiazole 1,1-dioxide [Example 106] | ~80 µmol/kg
